Source: patent US7122360B1, “Polypeptides, polynucleotides and uses thereof” (University of Dundee, priority 1998, dated 2006)
“Also recorded” adds a separate entry of the source.

Columns and labels:
MAPKAP-K2 [1] = assay: Activation of MAPKAP-K2 in 293 cells; format: cell-based, human; conditions: 50 μM PD 98059 or 10 μM SB 203580
Protocol: (§1) FIG. 9. Effect of Ro 318220 on the activity of MSK1. (A) Effect of Ro 318220 on GST-MSK1 (closed circles), mixed PKC isoforms (open circles) GST-MAPKAP-K1b and MAPKAP-K2 (open triangles) in vitro. […] The error for each point is ±10%. […] The cells were lysed MAPKAP-K2 was immunoprecipitated and assayed. […] (C) as above except that 293 cells were incubated for 2 h in 32phosphate (0.1 mCi/ml) before treatment with inhibitors. Cells were then exposed to either UV radiation (200 J/m2) or left untreated (−), incubated for a further 20 min in the continued presence of inhibitors. Following cell lysis, HSP27 was immunoprecipitated from cell extracts (Cuenda et al., 1995) run on a 15% polyacrylamide gel and autoradiographed.
(§2) Cell Culture, stimulation and cell lysis.

MSK1 [2] = assay: Activation of transfected Flag-MSK1 in 293 cells; format: cell-based, human; conditions: for UV-induced activation of transfected MSK1 / activation of transfected MSK1 by TPA: 50 μM PD 98059 or 10 μM SB 203580
Protocol: FIG. 6. Effect of mutation of MSK1 on activation by TPA and UV in 293 cells. 293 cells were transiently transfected with DNA constructs expressing Flag epitope tagged wild type MSK1, N-terminal (NT) “kinase dead” MSK1 and C-terminal (CT) “kinase dead” MSK1. […] The cells were lysed and the MSK1 was immunoprecipitated from the lysates and assayed with Crosstide.
Transfection of MSK1 into 293 cells. 293 cells were cultured on 10 cm diameter dishes and transfected with the pCMV5 vector encoding the Flag epitope tagged MSK1 constructs using a modified calcium phosphate method (Alessi et al., 1996b). 24 h post-transfection, the cells were deprived of serum for 16 h, stimulated with TPA or exposed to UV radiation, the cells were then lysed in 1 ml of ice cold Buffer A, centrifuged at 13,000×g for 5 min, and the Flag tagged MSK1 protein immunoprecipitated from aliquots of lysate (containing 25 μg protein) using 2 μg of FLAG antibody coupled to 5 (1 of Protein G-Sepharose.
Immunoprecipitates were incubated, washed and assayed for MSK1 activity as described above.

HSP27 = assay: UV induced phosphorylation of HSP27 in 293 cells; format: cell-based, human; conditions: UV 200 J/m^2
Protocol: as §1

MAPKAP-K2 [3] = assay: Activation of MAPKAP-K2 by TNF in HeLa cells; format: cell-based
Excerpt: as §2

MAPKAP-K2 [4] = assay: LPS-induced activation of MAPKAP-K2 in RAW 264 macrophages; format: cell-based, mouse; conditions: LPS 100 ng/ml 1 h, 10 μM SB 203580, 5 TM Ro 318220
MAPKAP-K1a/b [5] = assay: Activation of MAPKAP-K1a/b in 293 cells; conditions: 50 μM PD 98059 or 10 μM SB 203580
MAPKAP-K1 [6] = assay: NGF-induced activation of MAPKAP-K1 in PC12 cells; conditions: 50 μM PD 98059, 10 μM SB 203580
MSK1 [7] = target: MSK1 (Homo sapiens, UniProt O75582); assay: Effect of Ro 318220 on GST-MSK1 activity in vitro; format: biochemical; conditions: compared with PKC isoforms and MAPKAP-K1a/b
Chain of MSK1 (Homo sapiens, UniProt O75582) (O75582 whole entry, canonical isoform): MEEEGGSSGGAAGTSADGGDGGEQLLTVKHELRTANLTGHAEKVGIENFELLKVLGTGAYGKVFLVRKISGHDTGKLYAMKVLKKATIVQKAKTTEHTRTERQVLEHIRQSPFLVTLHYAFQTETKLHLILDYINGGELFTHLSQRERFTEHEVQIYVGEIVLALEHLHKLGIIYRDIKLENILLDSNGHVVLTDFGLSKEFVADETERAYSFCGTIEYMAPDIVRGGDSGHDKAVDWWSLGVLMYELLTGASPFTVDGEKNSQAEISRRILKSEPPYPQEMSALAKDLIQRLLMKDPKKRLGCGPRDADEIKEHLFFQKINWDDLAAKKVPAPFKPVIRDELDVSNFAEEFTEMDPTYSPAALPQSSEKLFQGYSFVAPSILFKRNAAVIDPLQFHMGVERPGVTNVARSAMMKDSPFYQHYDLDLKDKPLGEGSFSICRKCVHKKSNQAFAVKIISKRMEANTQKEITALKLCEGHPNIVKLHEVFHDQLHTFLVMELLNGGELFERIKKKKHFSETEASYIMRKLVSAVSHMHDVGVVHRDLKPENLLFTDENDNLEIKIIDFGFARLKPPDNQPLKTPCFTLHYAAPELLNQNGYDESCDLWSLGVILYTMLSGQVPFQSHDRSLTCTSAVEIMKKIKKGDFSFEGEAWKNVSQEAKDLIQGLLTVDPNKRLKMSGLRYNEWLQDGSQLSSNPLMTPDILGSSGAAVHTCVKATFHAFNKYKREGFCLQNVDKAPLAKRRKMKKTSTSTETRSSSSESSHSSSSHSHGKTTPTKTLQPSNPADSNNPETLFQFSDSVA

PKC isoforms = assay: Effect of Ro 318220 on mixed PKC isoforms in vitro; format: biochemical; conditions: Davis et al., 1989, Alessi 1997, FIG. 9A
Protocol: as §1

MAPKAP-K1a/b [8] = target: T1, MAPKAP-K1a/b (Oryctolagus cuniculus, UniProt A0A5F9C4L9); assay: Effect of Ro 318220 on MAPKAP-K1a/b in vitro; format: biochemical; conditions: Alessi 1997, FIG. 9A
T1 construct: GST
T1 sequence (A0A5F9C4L9 1-740): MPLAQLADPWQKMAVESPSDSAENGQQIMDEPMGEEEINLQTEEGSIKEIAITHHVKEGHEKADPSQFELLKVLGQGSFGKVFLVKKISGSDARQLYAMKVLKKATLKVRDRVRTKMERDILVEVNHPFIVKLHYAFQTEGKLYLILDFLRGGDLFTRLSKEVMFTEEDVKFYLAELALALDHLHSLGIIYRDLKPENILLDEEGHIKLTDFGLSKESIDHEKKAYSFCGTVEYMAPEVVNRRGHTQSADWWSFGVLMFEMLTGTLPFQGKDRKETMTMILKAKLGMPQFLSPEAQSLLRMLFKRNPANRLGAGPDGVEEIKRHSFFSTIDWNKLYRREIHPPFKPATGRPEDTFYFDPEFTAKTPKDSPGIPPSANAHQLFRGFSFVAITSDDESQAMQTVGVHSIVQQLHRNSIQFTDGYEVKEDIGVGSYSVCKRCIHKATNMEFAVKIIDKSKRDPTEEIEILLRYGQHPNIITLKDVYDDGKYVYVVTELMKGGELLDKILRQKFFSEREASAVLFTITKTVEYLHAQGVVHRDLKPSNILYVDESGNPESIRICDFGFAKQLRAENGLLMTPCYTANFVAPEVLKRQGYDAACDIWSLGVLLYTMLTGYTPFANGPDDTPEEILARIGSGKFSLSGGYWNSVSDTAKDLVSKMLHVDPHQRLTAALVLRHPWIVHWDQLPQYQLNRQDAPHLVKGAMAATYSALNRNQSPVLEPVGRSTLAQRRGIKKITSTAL
Protocol: as §1

MAPKAP-K2 [9] = target: T2, MAPKAP-K2 (Homo sapiens, UniProt P49137); assay: Effect of Ro 318220 on MAPKAP-K2 in vitro; format: biochemical; conditions: even at 10 μM
T2 construct: GST; made in house; host or cells: bacteria
T2 sequence (P49137 46-400 limits assumed): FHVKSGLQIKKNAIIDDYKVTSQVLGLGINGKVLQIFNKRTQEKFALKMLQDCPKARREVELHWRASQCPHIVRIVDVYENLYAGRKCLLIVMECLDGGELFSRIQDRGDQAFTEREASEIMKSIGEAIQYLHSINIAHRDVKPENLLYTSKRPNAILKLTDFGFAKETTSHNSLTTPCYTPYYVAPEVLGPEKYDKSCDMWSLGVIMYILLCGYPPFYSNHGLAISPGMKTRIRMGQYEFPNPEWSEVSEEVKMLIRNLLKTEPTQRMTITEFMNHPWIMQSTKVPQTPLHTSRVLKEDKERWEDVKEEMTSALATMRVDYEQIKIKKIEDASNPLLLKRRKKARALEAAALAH
Protocol: as §1

MAPKAP-K1 [10] = assay: LPS-induced activation of MAPKAP-K1 in RAW 264 macrophages; format: cell-based, mouse; conditions: LPS 100 ng/ml 1 h, 10 μM UO 126, 5 TM Ro 318220
[11] = target: cyclic AMP dependent protein kinase (Homo sapiens, UniProt P17612); conditions: 10 μM Ro 318220 (Davis et al., 1989); cited from earlier work
MAPKAP-K1a/b [12] = assay: Activation of MAPKAP-K1a/b by TNF in HeLa cells; format: cell-based; conditions: 50 μM PD 98059, 10 μM SB 203580
Excerpt: as §2

MAPKAP-K1 [13] = assay: Activation of MAPKAP-K1 in SK-N-MC cells; format: cell-based; conditions: 50 μM PD 98059, 10 μM SB 203580
Protocol: FIG. 14. […] After cell lysis aliquots were assayed for either MSK1 (A), MAPKAP-K1 (B), MAPKAP-K2 (C) after their immunoprecipitation from the lysates or immunoblotted for phosphorylation of CREB and ATF1 (D).
as §2

MAPK = conditions: PC12 cells expressing high levels of the NGF receptor (Alessi et al., 1995); cited from earlier work

## C[S+]([O-])c1ccc(-c2nc(-c3ccncc3)c(-c3ccc(F)cc3)[nH]2)cc1 (stereo not shown) [SB 203580]
MAPKAP-K2 [1]
  activation of MAPKAP-K2 by stressful stimuli: prevented
MSK1 [2]
  UV-induced activation of transfected MSK1: prevented
  activation of transfected MSK1 by TPA: but not by SB 203580
HSP27
  UV induced phosphorylation of HSP27: blocked
MAPKAP-K2 [3]; 50 μM PD 98059, 10 μM SB 203580
  activation of MAPKAP-K2 after 5 min of TNF stimulation: inhibited
MAPKAP-K2 [4]
  LPS-induced activation of MAPKAP-K2: completely block
MAPKAP-K1a/b [5]
  activation of MAPKAP-K1a/b by EGF and TPA: but not by SB 203580
MAPKAP-K1 [6]
  NGF-induced activation of MAPKAP-K1: unaffected

## Cn1cc(C2=C(c3cn(CCCSC(=N)N)c4ccccc34)C(=O)NC2=O)c2ccccc21 [Ro 318220]
MSK1 [7]
  inhibition of MSK1 activity in vitro: equally potent inhibitor; also recorded: reversible inhibitor
PKC isoforms
  IC50: 0.01 to 0.03 µM
MAPKAP-K1a/b [8]
  IC50: 0.01 to 0.03 µM
MAPKAP-K2 [9]
  inhibition of MAPKAP-K2 in vitro: does not significantly inhibit
HSP27
  UV induced phosphorylation of HSP27: did not significantly affect
MAPKAP-K2 [3]; 5 μM Ro 318220, data not shown
  activation of MAPKAP-K2 by TNF: unaffected
MAPKAP-K1 [10]
  LPS-induced activation of MAPKAP-K1: does not affect
MAPKAP-K2 [4]
  LPS-induced activation of MAPKAP-K2: does not affect
[11]
  inhibition of cyclic AMP dependent protein kinase: not significantly inhibited

## COc1cccc(-c2cc(=O)c3ccccc3o2)c1N [PD 98059]
MSK1 [2]
  UV-induced activation of transfected MSK1: unaffected
  activation of transfected MSK1 by TPA: prevented
MSK1 [2]; data not shown
  activation of transfected wild type MSK1 by EGF, basic FGF and serum: prevented
MAPKAP-K1a/b [12]
  activation of MAPKAP-K1a/b after 15 min of TNF stimulation: suppressed
MAPKAP-K1 [13]
  activation of MAPKAP-K1 by FGF: abolished
MAPK
  NGF-induced activation of MAPK: only partially suppresses
MAPKAP-K1a/b [5]
  activation of MAPKAP-K1a/b by EGF and TPA: largely suppressed
MAPKAP-K1 [6]
  NGF-induced activation of MAPKAP-K1: only partially inhibited
